In one experiment the test system is NK3 receptor. The experiment can be described thus: Rotating behaviour induced by intrastriatal senktide in gerbils. In kind it is in vivo, gerbil. The protocol:
This test was carried out according to X. Emonds-Alt et al., Life Sci., 1995, 56, PL27-PL32.

The target in experiment [1] is T1, NK2 receptors (Rattus norvegicus, UniProt P16610).
T1 construct: from tissue; host or cells: rat brain (septum/hippocampus; prefrontal cortex), living animal
T1 sequence (P16610 1-390): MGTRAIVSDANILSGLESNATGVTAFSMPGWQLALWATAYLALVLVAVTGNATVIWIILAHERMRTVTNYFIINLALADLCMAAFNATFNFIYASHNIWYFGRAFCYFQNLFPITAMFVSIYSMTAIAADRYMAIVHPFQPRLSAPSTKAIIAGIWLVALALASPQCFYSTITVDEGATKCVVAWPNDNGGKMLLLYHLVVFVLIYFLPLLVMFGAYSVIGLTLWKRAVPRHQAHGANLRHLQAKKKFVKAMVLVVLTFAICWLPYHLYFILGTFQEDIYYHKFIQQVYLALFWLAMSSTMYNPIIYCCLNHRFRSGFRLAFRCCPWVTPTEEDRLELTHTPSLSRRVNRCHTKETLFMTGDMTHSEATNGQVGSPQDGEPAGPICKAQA
The experiment can be described thus: Constraint stress-induced increase in tissue level of DOPAC in prefrontal cortex of rats. In kind it is in vivo. Particulars: 1 mg/kg by the intraperitoneal route. The source says:
In rats, constraint stress causes an increase in the tissue level of DOPAC (3,4-dihydroxyphenyl acetic acid) in the prefrontal cortex (test carried out according to B. A. Morrow et al., Eur. J. Pharmacol., 1993, 238, 255-262).

Experiment [2] has as its target T2, NK3 receptors (Cavia porcellus, UniProt P30098).
T2 construct: from tissue; host or cells: guinea pig brain (septum/hippocampus; A10/VTA), living animal
T2 sequence (P30098 1-440): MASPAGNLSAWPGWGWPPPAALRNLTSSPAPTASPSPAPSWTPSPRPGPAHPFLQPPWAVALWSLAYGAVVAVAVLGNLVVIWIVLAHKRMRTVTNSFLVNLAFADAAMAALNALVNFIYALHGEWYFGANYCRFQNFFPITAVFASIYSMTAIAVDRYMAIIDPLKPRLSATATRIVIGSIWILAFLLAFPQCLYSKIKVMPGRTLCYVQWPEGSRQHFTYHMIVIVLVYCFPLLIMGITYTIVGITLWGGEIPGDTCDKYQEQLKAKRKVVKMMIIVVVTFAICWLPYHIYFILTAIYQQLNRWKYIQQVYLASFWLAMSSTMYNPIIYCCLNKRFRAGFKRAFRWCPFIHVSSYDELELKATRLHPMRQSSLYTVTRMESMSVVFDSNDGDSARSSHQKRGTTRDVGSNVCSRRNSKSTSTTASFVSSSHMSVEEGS
The experiment can be described thus: Haloperidol-induced increase in number of spontaneously active dopaminergic neurons in A10 region of guinea pigs. Particulars: haloperidol 1 mg/kg i.p., compound 0.1-1 mg/kg by the intraperitoneal route. In kind it is in vivo, guinea pig. The source says:
This increase is mediated by the activation of the NK3 receptors by endogenous neurokinin B (C. Gueudet et al., Synapse, 1999, 33, 71-79).

Experiment [3] deals with T3, cloned human NK3 receptors (Homo sapiens, UniProt P29371).
T3 construct: expressed in transfected cells; host or cells: CHO cells
T3 sequence (P29371 1-465): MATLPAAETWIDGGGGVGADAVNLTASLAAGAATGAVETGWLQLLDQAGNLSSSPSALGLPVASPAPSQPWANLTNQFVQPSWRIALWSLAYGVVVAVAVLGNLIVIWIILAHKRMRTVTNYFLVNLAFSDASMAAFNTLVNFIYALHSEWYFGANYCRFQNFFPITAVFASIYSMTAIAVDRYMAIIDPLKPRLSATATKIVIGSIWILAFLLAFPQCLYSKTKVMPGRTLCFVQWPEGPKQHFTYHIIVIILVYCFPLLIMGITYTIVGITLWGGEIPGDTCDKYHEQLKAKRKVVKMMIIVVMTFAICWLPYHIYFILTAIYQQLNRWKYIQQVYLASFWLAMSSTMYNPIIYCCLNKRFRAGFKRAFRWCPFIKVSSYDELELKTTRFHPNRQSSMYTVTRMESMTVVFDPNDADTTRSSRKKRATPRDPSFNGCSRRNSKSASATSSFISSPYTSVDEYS
Description: Binding of [125I]His[MePhe7]NKB to cloned human NK3 receptors expressed by CHO cells. Particulars: read-out: inhibition constant Ki, binding of [125I]His[MePhe7]NKB to cloned human NK3 receptors. How it is done:
The affinity of the compounds for tachykinin receptors was evaluated in vitro by several biochemical tests using radioligands: 3) The binding of [^125I]His[[…]]NKB to the cloned human NK3 receptors expressed by CHO cells (Buell et al., FEBS Letters, 1992, 299, 90-95). The tests were carried out according to X. Emonds-Alt et al. (Eur. J. Pharmacol., 1993, 250, 403-413; Life Sci., 1995, 56, PL 27-32).

A further experiment relates to NK2 receptor. Description: Rotating behaviour induced by intrastriatal [Nle10]NKA(4-10) in gerbils. In kind it is in vivo, gerbil. Particulars: [Nle10]NKA(4-10) intrastriatal. The protocol: In gerbils, a rotating behaviour is induced by intrastriatal administration of a specific agonist of the NK2 receptor, [Nle^10]NKA(4-10); it was observed that a unilateral application of [Nle^10]NKA(4-10) into the gerbil striatum leads to strong contralateral rotations which are inhibited by the compounds according to the invention administered either by the intraperitoneal route, or by the oral route. This test was carried out according to M. Poncelet et al., Neurosci, Lett., 1993, 149, 40-42. In this test, the compounds according to the invention are active at doses ranging from 0.1 mg to 30 mg per kg.

In experiment [4] the target is T1, NK2 receptors. Description: Increase in hippocampal acetylcholine release caused by NK2 agonist applied in the septum of rats. In kind it is in vivo. Particulars: 0.1-0.3 mg/kg by the intraperitoneal route. The source says:
(§1) In rats, the application of an agonist of the NK2 receptors in the septum causes an increase in the release of acetylcholine in the hippocampus (test carried out according to R. Steinberg et al., Eur. J. Neurosci., 1998, 10, 2337-2345). Likewise in guinea pigs, the local application of an agonist of the NK3 receptors in the septum causes an increase in the release of acetylcholine in the hippocampus (test carried out according to N. Marco et al., Neuropeptides, 1998, 32, 481-488).

Experiment [5] has as its target T4, cloned human NK2 receptors (Homo sapiens, UniProt P21452).
T4 construct: expressed in transfected cells; host or cells: CHO cells
T4 sequence (P21452 1-398): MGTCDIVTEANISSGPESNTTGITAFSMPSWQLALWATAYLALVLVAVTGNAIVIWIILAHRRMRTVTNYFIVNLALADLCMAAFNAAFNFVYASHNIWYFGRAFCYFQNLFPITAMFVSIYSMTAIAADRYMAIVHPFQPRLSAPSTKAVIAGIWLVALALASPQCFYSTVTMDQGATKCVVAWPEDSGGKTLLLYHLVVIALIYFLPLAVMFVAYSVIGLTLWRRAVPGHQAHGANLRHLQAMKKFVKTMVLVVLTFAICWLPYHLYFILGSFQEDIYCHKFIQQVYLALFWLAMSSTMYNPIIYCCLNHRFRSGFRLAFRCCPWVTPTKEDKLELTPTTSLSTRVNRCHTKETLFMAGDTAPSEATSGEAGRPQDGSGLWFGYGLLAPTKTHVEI
The experiment can be described thus: Binding of [125I]His-NKA to cloned human NK2 receptors expressed by CHO cells. Particulars: read-out: inhibition constant Ki, binding of [125I]His-NKA to cloned human NK2 receptors. How it is done: The affinity of the compounds for tachykinin receptors was evaluated in vitro by several biochemical tests using radioligands: 2) The binding of [^125I]|His-NKA to the cloned human NK2 receptors expressed by CHO cells (Y. Takeda et al., J. Neurochem., 1992, 59, 740-745). The tests were carried out according to X. Emonds-Alt et al. (Eur. J. Pharmacol., 1993, 250, 403-413; Life Sci., 1995, 56, PL 27-32). […] The inhibition constant Ki is less than or equal to 5×10^−10M.

The target in experiment [6] is T2, NK3 receptors. Description: Increase in hippocampal acetylcholine release caused by NK3 agonist applied in the septum of guinea pigs. In kind it is in vivo, guinea pig. Particulars: 0.3-1 mg/kg by the intraperitoneal route.
Excerpt: as §1

Experiment [7] addresses T1, NK2 receptors. Particulars: rats, literature reference; cited from earlier work.

Results on three compounds are retold here after patent publication US20080261976A1, “NOVEL PIPERIDINECARBOXAMIDE DERIVATIVES, METHOD FOR PREPARING SAME AND PHARMACEUTICAL COMPOSITIONS CONTAINING SAME” (SANOFI-AVENTIS, priority 2001, published 2008).

Counter-ions that a name gives are not always drawn. Like-named read-outs stand apart in the source and are kept apart here.

Usually Ki stands for the equilibrium dissociation constant of an inhibitor or competing ligand from its target. Turning to `CN(C)C(=O)C1(N2CCCCC2)CCN(CCC2(c3ccc(Cl)c(Cl)c3)CN(C(=O)c3ccccc3)CCO2)CC1` (single isomer, unassigned) [Example 1, N,N-Dimethyl-1-[2-[4-benzoyl-2-(3,4-dichloro-phenyl)morpholin-2-yl]ethyl]-4-(piperidin-1-yl)-piperidine-4-carboxamide dihydrochloride, dextrorotatory isomer], the “ED50, inhibition of contralateral rotations” value stood at 2.8 mg per kg with NK3 receptor (intraperitoneal route) and 4.3 mg per kg with NK3 receptor (oral route). Besides, the “effect on constraint stress-induced increase in DOPAC tissue level in prefrontal cortex” value on NK2 receptors [1] was “completely blocks”. Also, at NK3 receptors [2], the “effect on haloperidol-induced increase in number of spontaneously active dopaminergic neurons (A10 region)” value is “blocks”. In addition, the inhibitory constant (Ki) in [3] and in experiment [5] was 0.04 nM in each case. The “effective dose 50 (ED50), inhibition of contralateral rotations” value in the experiment on NK2 receptor (intraperitoneal route) was found to be 2.9 mg per kg; in the experiment on NK2 receptor (oral route), 6.5 mg per kg. The “effect on increase in release of acetylcholine in the hippocampus caused by an NK2 agonist” value at NK2 receptors [4] is “blocks”. The “effect on increase in release of acetylcholine in the hippocampus caused by an NK3 agonist” value at NK3 receptors [6] is recorded as “blocks”.
With `NC(=O)C1(N2CCCCC2)CCN(CCC2(c3ccc(Cl)c(Cl)c3)CN(C(=O)c3ccccc3)CCO2)CC1` (stereo not drawn) [compound α, 1-[2-[4-benzoyl-2-(3,4-dichlorophenyl)morpholin-2-yl]ethyl]-4-(piperidin-1-yl)piperidine-4-carboxamide, reference compound], the Ki in [3] is 2 nM; in [5] it was 0.04 nM.
Take `CC(=O)NC1(c2ccccc2)CCN(CC[C@H](CN(C)C(=O)c2ccccc2)c2ccc(Cl)c(Cl)c2)CC1` [saredutant]: the “effect on constraint stress-induced increase in DOPAC tissue level in prefrontal cortex” value on NK2 receptors [7] is reported as “blocked”.
